From patent US5021439A, “Cerebral function ameliorating agents related to Tan-950 A” (priority 1988, dated 1991)

Columns and labels:
NMDA-type receptor = assay: Binding assay of NMDA-type receptor (3H-CPP) on rat forebrain crude synaptic membrane; conditions: for IC50: 10 nM 3H-CPP, pH 7.1, 0° C., 15 min, read-out: Affinity to NMDA-type receptor (3H-CPP), IC50
Description: (§1) The receptors of the exitatory amino acid (especially, glutamate) are classified into NMDA type, Quisqualate type and Kainate type. 3H-CPP [3-(2-carboxypiperazin-4-yl)propyl-1-[…]] as the ligand (a radio active substance which has high affinity for the receptor) for the NMDA-type-receptor, ^3 H-AMPA (DL-α-amino-3-hydroxy-5-methylisoxazole-4-propionic acid) as the ligand for the quisqualate-type-receptor, and ^3 H-kainic acid as the ligand for the kainate-type-receptor were used respectively. A sample of the crude synaptic membrane prepared from the forebrain of rat was washed 4 times by Tris hydrochloric acid buffer (pH 7.1) and kept in a freezing condition at -20° C. until its use.
(§2) Samples of the frozen crude synaptic membrane were melted and, after floating on 50 mM Tris hydrochloric acid buffer (pH 7.1), incubated for 30 minutes at 37° C. After the incubation, the synaptic membrane was centrifuged (48,000×g) and washed 3 times with 50 mM Tris hydrochloric acid buffer and used in the test.
(§3) In the binding assay of the NMDA-type-receptor, samples of the synaptic membrane were incubated in the presence or absence of a test compound together with 10 nM ^3 H-CPP in 50 mM Tris hydrochloric acid buffer (pH 7.1, 0° C.) for 15 minutes. The sediment (pellet) containing synapse membrane which was recovered by centrifugation of the incubation solution was rinsed with 50 mM Tris hydrochloric acid buffer (pH 7.1) and dissolved in 0.5 ml of Protosol® (made by New England Nuclear Inc.). In the binding assay of Quisqualate-type-receptor and Kainate-type-receptor, samples of the synapse was incubated in the presence or absence of a test compound in 5 nM ^3 H-AMPA (Quisqualate-type-receptor) or 2 nM ^3 H-Kainic acid (Kainate-type-receptor) together with 50 mM Tris hydrochloric acid buffer (pH 7.1, 0° C.) for 90 minutes. The solution was filtered with Whatman GF/B filter (Whatman®, made by Whatman Inc.) under reduced pressure and the filter was washed 3 times with 50 mM Tris hydrochloric acid buffer. The radioactivity on the filter was measured by a conventional method. The specific binding amount was determined by subtracting the non-specific binding from the total binding, taking the binding in the presence of an excessive non-radioactive L-sodium glutamate (1 mM) as the amount of the non-specfic binding, i.e., the binding to anything other than the receptor. The 50% inhibiting concentration (IC50) of the compound to be tested was determined as the concentration which inhibits 50% of the specific receptor binding of ^3 H-CPP, ^3 H-AMPA or ^3 H-kainic acid.

[1] = system: glutamate receptor (NMDA type, Quisqualate type and Kainate type); assay: Affinity for the glutamate receptors of the brain, 3 sub-types taken together; assay type: binding, rat; conditions: summary of Table 5
Description: as §1, §2, §3

Kainate-type receptor = assay: Binding assay of Kainate-type receptor (3H-kainic acid) on rat forebrain crude synaptic membrane; conditions: for Affinity to Kainate-type receptor (3H-KA), IC50: 2 nM 3H-Kainic acid, pH 7.1, 0° C., 90 min; for Affinity to the Kainate-type-receptor (in words): summary of Table 5
Description: as §1, §2
as §3, with “receptor.” for “receptor. The 50% inhibiting concentration (IC50) of the compound to be tested was determined as the concentration which inhibits 50% of the specific receptor binding of ^3 H-CPP, ^3 H-AMPA or ^3 H-kainic acid.”

[2] = target: Quisqualate-type receptor; assay: Binding assay of Quisqualate-type receptor (3H-AMPA) on rat forebrain crude synaptic membrane; conditions: for IC50: 5 nM 3H-AMPA, pH 7.1, 0° C., 90 min, read-out: Affinity to Quisqulate-type receptor (3H-AMPA), IC50
Description: as §1, §2
as §3, with “receptor.” for “receptor. The 50% inhibiting concentration (IC50) of the compound to be tested was determined as the concentration which inhibits 50% of the specific receptor binding of ^3 H-CPP, ^3 H-AMPA or ^3 H-kainic acid.”

Compound | IC50 (NMDA-type receptor) [µM] | Affinity to the 3 sub-type receptors (in words) [1] | Affinity to Kainate-type receptor (3H-KA), IC50 (Kainate-type receptor) [µM] | IC50 [2] [µM] | Affinity to the NMDA-type-receptor (in words) (NMDA-type receptor; summary of Table 5) | Affinity to the Kainate-type-receptor (in words) (Kainate-type receptor) | Affinity to the Quisqualate-type-receptor (in words) ([2]; summary of Table 5)
N[C@@H](Cc1c[nH]oc1=O)C(=O)NC[C@H](NC(=O)OCc1ccccc1)C(=O)O [Compound 63] | 47 | high affinities to the 3 sub-type receptors | 22 | 21 |  |  | 
N[C@H](CNC(=O)[C@@H](N)Cc1c[nH]oc1=O)C(=O)O [Compound 120] | 11 | high affinities to the 3 sub-type receptors | 24 | 21 |  |  | 
N[C@@H](Cc1c[nH]oc1=O)C(=O)N[C@@H](Cc1ccc(O)cc1)C(=O)O [Compound 135] | 32 | high affinities to the 3 sub-type receptors | 43 | 19 |  |  | 
N[C@@H](Cc1c[nH]oc1=O)C(=O)N1CCCC(C(=O)O)C1 (stereo partly shown) [Compound 129] | 10 | high affinities to the 3 sub-type receptors | 36 | 13 |  |  | 
Cc1[nH]oc(=O)c1[C@H](N)C(=O)O [Compound 176] | 21 | differences in their affinities | > 100 | > 100 |  |  | 
N[C@@H](Cc1c[nH]oc1=O)C(=O)N1CCC(C(=O)O)CC1 [Compound 126] | 10 | high affinities to the 3 sub-type receptors | 18 | 17 |  |  | 
N[C@@H](Cc1c[nH]oc1=O)C(=O)N1CCC[C@@H]1C(=O)O [Compound 170] | 40 | high affinities to the 3 sub-type receptors | 20 | 67 |  |  | 
CC(C)c1[nH]oc(=O)c1[C@@H](N)C(=O)O [Compound 182] | 2.1 | differences in their affinities | > 100 | > 100 | high affinity |  | 
N[C@@H](Cc1c[nH]oc1=O)C(=O)NCc1ccc(C(=O)O)cc1 [Compound 123] | 27 | high affinities to the 3 sub-type receptors | 37 | 59 |  |  | 
N[C@@H](Cc1c[nH]oc1=O)C(=O)N1CCC[C@H]1C(=O)O [Compound 167] | 20 | high affinities to the 3 sub-type receptors | 6.8 | 61 |  | strong affinity | 
N[C@@H](Cc1c[nH]oc1=O)C(=O)NCCC(=O)O [Compound 69] | 11 | high affinities to the 3 sub-type receptors | 5.2 | 6.4 |  | strong affinity | strong affinity
N[C@@H](Cc1c[nH]oc1=O)C(=O)NCC(=O)O [Compound 66] | 21 | high affinities to the 3 sub-type receptors | 19 | 48 |  |  | 
CCC[C@H](NC(=O)[C@@H](N)Cc1c[nH]oc1=O)C(=O)O [Compound 51] | 10 | high affinities to the 3 sub-type receptors | 51 | 20 |  |  | 
N[C@@H](CNC(=O)[C@@H](N)Cc1c[nH]oc1=O)C(=O)O [Compound 117] | 16 | high affinities to the 3 sub-type receptors | 29 | 13 |  |  | 
N[C@H](C(=O)O)c1c[nH]oc1=O [Compound 104] | 47 | differences in their affinities | > 100 | > 100 |  |  | 
